Reference: patent publication US20230146939A1, “TREATMENT FOR HUMAN CORONAVIRUS INFECTION” (THE ADMINISTRATORS OF THE TULANE EDUCATIONAL FUND, priority 2020, published 2023)

Experiments:
[1] = tested on: lung tissue; conditions: saline/ATN-161, no SARS-CoV-2
[2] = in vivo; cited from earlier work
[3] = cancer patients; cited from earlier work
[4] = tested on: SARS-CoV-2; conditions: 1 h

Substance | H&E histopathological changes in uninfected mice [1] | Masson's trichrome histopathological changes in uninfected mice [1] | tissue distribution [2] | safety in human clinical trials [3] | IC50 [4] [µM]
Ac-PHSCN-NH2 [ATN-161, Ac-PHSCN-NH2] [listing 1 of 2 here] | no histopathological changes in any of the mice | no histopathological changes in any of the mice | high tissue distribution | no dose limiting toxicity | –
Ac-PHSCN-NH2 [ATN-161, Ac-PHSCN-NH2] [listing 2 of 2 here] | – | – | – | – | 3.16
